Active and inactive are the calls of the source. The rule behind the calls is not given here.

The target in assay [1] is T1, DNA topoisomerase 1 (Escherichia coli (strain K12)) (UniProt P06612).
T1 sequence (whole entry): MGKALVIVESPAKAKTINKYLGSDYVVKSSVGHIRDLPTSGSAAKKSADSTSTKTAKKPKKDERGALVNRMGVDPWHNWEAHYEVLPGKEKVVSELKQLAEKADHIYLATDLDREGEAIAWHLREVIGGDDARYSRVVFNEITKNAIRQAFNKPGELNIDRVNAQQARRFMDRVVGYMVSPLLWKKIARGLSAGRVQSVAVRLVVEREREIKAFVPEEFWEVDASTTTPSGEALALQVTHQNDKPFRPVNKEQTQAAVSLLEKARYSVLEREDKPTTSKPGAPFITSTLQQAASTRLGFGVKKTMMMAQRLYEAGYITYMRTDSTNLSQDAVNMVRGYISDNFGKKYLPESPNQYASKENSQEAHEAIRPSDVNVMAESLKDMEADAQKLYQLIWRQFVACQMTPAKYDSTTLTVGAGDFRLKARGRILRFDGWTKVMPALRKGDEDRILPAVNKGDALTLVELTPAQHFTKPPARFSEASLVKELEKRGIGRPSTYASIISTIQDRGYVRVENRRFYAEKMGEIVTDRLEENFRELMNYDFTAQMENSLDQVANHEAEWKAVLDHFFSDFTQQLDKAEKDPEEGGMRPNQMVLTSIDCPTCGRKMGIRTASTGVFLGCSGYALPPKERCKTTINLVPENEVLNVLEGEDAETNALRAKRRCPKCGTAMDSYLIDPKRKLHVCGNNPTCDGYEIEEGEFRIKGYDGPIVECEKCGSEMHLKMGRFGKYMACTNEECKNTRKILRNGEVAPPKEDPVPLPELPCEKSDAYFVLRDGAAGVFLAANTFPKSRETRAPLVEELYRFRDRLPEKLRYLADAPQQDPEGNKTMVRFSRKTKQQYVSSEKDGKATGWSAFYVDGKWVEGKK
Description: Inhibition of Escherichia coli topoisomerase 1 mediated DNA relaxation at 10 uM using plasmid pMT-puro DNA as substrate after 30 mins by ethidium bromide staining-based agarose gel electrophoresis method.

In the next assay the test system is HCT-116. Description: Antiproliferative activity against human HCT116 cells assessed as reduction in cell viability measured after 72 hrs by MTT assay. In kind it is functional, cell-based. Particulars: HCT-116, 72 h.
A further assay deals with A549. Description: Antiproliferative activity against human A549 cells assessed as reduction in cell viability measured after 72 hrs by MTT assay. Particulars: A549, 72 h. In kind it is functional, cell-based.
Assay [2] has as its target DNA topoisomerase 2-alpha (Homo sapiens) (UniProt P11388). Description: Inhibition of human DNA topoisomerase 2 mediated decatenation at 10 uM using kDNA as substrate after 30 mins by ethidium bromide staining-based agarose gel electrophoresis method.
Another assay has as its system MCF7. Description: Antiproliferative activity against human MCF7 cells assessed as reduction in cell viability measured after 72 hrs by MTT assay. It counts as functional, cell-based. Particulars: MCF7, 72 h. (In general: Tetrazolium assays rely on reduction of a dye to a coloured formazan, in cell work by metabolically active cells.)
In assay [3] the target is T1, DNA topoisomerase 1 (Escherichia coli (strain K12)). Description: Inhibition of Escherichia coli topoisomerase 1 mediated DNA relaxation using plasmid pMT-puro DNA as substrate after 30 mins by ethidium bromide staining-based agarose gel electrophoresis method.
For assay [4] the target is unchanged. Description: Inhibition of Escherichia coli topoisomerase 1 mediated DNA relaxation at 1 uM using plasmid pMT-puro DNA as substrate after 30 mins by ethidium bromide staining-based agarose gel electrophoresis method.

Chain of DNA topoisomerase 2-alpha (Homo sapiens) (P11388 whole entry): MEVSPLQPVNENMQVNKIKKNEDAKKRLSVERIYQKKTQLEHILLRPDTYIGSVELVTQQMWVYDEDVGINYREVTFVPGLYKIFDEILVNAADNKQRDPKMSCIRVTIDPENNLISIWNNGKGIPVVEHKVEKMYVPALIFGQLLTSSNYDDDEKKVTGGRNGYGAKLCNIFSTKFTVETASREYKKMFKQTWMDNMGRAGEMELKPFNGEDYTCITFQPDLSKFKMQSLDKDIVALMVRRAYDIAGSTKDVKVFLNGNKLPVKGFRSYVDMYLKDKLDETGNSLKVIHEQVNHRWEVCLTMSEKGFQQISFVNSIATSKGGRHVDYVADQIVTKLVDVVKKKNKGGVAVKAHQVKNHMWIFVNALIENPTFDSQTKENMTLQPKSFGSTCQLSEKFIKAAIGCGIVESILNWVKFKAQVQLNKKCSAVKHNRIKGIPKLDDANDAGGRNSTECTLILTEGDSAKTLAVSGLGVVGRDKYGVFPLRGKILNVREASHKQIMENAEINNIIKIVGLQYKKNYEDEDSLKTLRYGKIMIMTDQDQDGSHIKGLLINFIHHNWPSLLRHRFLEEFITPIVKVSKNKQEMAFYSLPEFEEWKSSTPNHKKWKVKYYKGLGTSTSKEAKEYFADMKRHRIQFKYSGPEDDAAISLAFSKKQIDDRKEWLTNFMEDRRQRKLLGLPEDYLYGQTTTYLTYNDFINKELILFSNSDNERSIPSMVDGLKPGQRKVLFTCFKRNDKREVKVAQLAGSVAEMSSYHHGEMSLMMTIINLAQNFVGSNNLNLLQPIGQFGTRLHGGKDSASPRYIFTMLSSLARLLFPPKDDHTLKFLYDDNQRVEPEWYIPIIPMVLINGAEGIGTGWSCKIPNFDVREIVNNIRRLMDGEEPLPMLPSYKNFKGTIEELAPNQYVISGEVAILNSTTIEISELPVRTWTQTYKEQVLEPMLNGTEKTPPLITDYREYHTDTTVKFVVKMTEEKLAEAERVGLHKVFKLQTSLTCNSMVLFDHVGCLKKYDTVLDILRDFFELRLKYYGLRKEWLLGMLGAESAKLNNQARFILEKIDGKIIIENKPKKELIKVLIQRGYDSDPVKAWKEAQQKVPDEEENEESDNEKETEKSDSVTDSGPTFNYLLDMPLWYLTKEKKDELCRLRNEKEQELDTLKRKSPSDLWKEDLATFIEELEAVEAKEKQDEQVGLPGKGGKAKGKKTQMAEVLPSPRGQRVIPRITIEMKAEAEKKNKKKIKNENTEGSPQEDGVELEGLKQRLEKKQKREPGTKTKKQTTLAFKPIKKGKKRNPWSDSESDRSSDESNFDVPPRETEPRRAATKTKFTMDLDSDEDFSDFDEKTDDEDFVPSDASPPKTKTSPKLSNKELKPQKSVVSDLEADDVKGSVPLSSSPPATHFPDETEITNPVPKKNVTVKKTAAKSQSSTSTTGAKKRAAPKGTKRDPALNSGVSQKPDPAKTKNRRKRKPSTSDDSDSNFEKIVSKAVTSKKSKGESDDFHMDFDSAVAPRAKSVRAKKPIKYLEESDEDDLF

In the case of `CCCCCCC[C@@H]1Cc2cc(O)c(C(=O)O)c3c2[C@H](O1)[C@H]1[C@@H](OC)/C=C(/CO)[C@H]2CC(C)(C)[C@]2(O)[C@@H](O)C[C@]1(C)O3`, the inhibition entry in assay [1] and in assay [2] was “inactive” in each case. For the same compound, the IC50 in the assay with HCT-116, in the assay on A549 and in the assay with MCF7 was more than 10 µM throughout.

With `CCCCCCC[C@@H]1Cc2cc(O)c(C(=O)O)c(O)c2[C@H](O)O1`, the inhibition result in assay [1] is “inactive”. In addition, the concentration for half-maximal inhibition (IC50) in the assay on HCT-116, in the assay with A549 and in the assay with MCF7 was more than 10 µM throughout. The inhibition entry in assay [2] is “Active”.

For the compound `CCCCCCC[C@@H]1Cc2cc(O)c(C(=O)O)c3c2[C@H](O1)[C@H]1[C@@H](OC)/C=C(/COC(C)=O)[C@H]2CC(C)(C)[C@]2(O)[C@@H](OC(C)=O)C[C@]1(C)O3`, the inhibition result in assay [1] and in assay [2] was “inactive” in each case. Further, the IC50 in the assay on HCT-116, with A549 and in the assay with MCF7 was more than 10 µM each time.

Consider `C=C1CC[C@@H]2[C@H]3O[C@H](CCCCCCC)Cc4cc(O)c(C(=O)O)c(c43)O[C@@]2(C)CC[C@@H]2[C@@H]1CC2(C)C`, for which the inhibition entry in assay [1] and in assay [2] was “Active” each time. Besides, the IC50 in the assay on HCT-116 was found to be 3.91 µM; with A549 it was 5.01 µM; in the assay on MCF7, 7.28 µM. The inhibition result in assay [3] was “Dose-dependent effect”.

On to `CC[C@@]1(O)C(=O)OCc2c1cc1n(c2=O)Cc2cc3ccccc3nc2-1`, for which the inhibition result in assay [4] is “Active”.

Regarding `C[C@H]([C@H](C)N1CC(=O)NC(=O)C1)N1CC(=O)NC(=O)C1`, the inhibition entry in assay [2] is “Active”.

For the compound `CO[C@@H]1/C=C(\C)C[C@H](OC(C)=O)[C@]2(O)[C@H](CC2(C)C)/C(COC(C)=O)=C\1`, the inhibition result in assay [1] and in assay [2] was “inactive” each time. Also, the IC50 with HCT-116, in the assay on A549 and in the assay on MCF7 was more than 10 µM each time.

Regarding `CO[C@@H]1/C=C(\C)C[C@H](O)[C@]2(O)[C@H](CC2(C)C)/C(CO)=C\1`, the inhibition entry in assay [1] and in assay [2] was “inactive” each time. Besides, the IC50 with HCT-116, with A549 and in the assay on MCF7 was more than 10 µM each time.

On to `CCCCCCC[C@@H]1Cc2cc(O)c(C(=O)O)c3c2[C@H](O1)[C@H]1[C@@H](OC)/C=C(/COC(C)=O)[C@H]2CC(C)(C)[C@]2(O)[C@@H](O)C[C@]1(C)O3`, for which the inhibition entry in assay [1] was “Active”. Moreover, the 50% inhibitory concentration (IC50) with HCT-116 stood at 5.98 µM; with A549, 6.31 µM; with MCF7, 8.88 µM. The inhibition result in assay [2] is “inactive”.

For orientation: IC50 means the concentration at which inhibition is half-maximal.

These data come from ChEMBL document CHEMBL4385619, “Identification of topoisomerases as molecular targets of cytosporolide C and its analog” (Bioorg Med Chem, 2019).
